Measurements reported in patent US9655884B2, “Antiparasitic use of isoxazoline compounds” (Intervet Inc., priority 2013, dated 2017).

Tested on: adult fleas (C. felis)
Experiment: In vitro membrane feeding exposure to assess flea reproduction
Parameters: species or system Ctenocephalides felis
Details: for Pupal Development Control / Larval Emergence: eggs of parent fleas fed 0.09 ng/mL in blood
Description: A membrane feeding method [Wade S E, Georgi J R. Survival and reproduction of artificially fed cat fleas, Ctenocephalides felis Bouché (Siphonaptera: Pulicidae). J Med Entomol 1988, 25: 186-190.] was modified to assess the impact of fluralaner exposure on flea reproduction. Defibrinated sheep blood was prepared in a series of dilutions with fluralaner to obtain concentrations between 50.0 and 0.09 ng/mL. These test solutions were prepared twice and each preparation was tested in duplicate resulting in a total of 4 replicates per concentration, along with a fluralaner negative solvent control (a solvent concentration equivalent to that of the highest concentrated fluralaner test solution) and an untreated control.
Unfed adult fleas (C. felis; 20 males and 20 females) were placed into a plastic unit that was then closed with a gauze lid. A grid inside the plastic unit divided the unit into 2 chambers, an upper chamber for flea feeding and a lower chamber for egg collection. Test or control blood preparations (2 ml) were placed in an artificial membrane closed glass tube that was then placed on the plastic unit as the food source. Feeding units were incubated (38° C. and 60% RH) for 10 days. Test and negative control blood preparations were freshly prepared and exchanged (on days 1, 3, 5, and 8) to permit continuous flea feeding. Fleas were transferred into fresh plastic units on Days 5 and 8 to facilitate egg collection. Collected eggs were mixed with flea nourishment medium and incubated (28° C. and 80% RH) in darkness for 22 (±3) days to enable flea development. Parameters recorded were flea survival, oviposition control, egg hatchability, pupa control, flea-emergence control and reproduction inhibition.

[1] = 0.09 ng/mL in blood, exposure day 3
[2] = 0.09 ng/mL in blood, exposure day 4
[3] = 0.09 ng/mL in blood, exposure day 5
[4] = 0.09 ng/mL in blood, exposure day 8
[5] = 0.09 ng/mL in blood, exposure day 9
[6] = 0.09 ng/mL in blood, exposure day 10
[7] = 0.19 ng/mL in blood, exposure day 3
[8] = 0.19 ng/mL in blood, exposure day 4
[9] = 0.19 ng/mL in blood, exposure day 5
[10] = 0.19 ng/mL in blood, exposure day 8
[11] = 0.19 ng/mL in blood, exposure day 9
[12] = 0.19 ng/mL in blood, exposure day 10
[13] = 0.39 ng/mL in blood, exposure day 3
[14] = 0.39 ng/mL in blood, exposure day 4
[15] = 0.39 ng/mL in blood, exposure day 5
[16] = 0.39 ng/mL in blood, exposure day 8
[17] = 0.39 ng/mL in blood, exposure day 9
[18] = 0.39 ng/mL in blood, exposure day 10
[19] = 0.78 ng/mL in blood, exposure day 3
[20] = 0.78 ng/mL in blood, exposure day 4
[21] = 0.78 ng/mL in blood, exposure day 5
[22] = 0.78 ng/mL in blood, exposure day 8
[23] = 0.78 ng/mL in blood, exposure day 9
[24] = 0.78 ng/mL in blood, exposure day 10
[25] = 1.56 ng/mL in blood, exposure day 3
[26] = 1.56 ng/mL in blood, exposure day 4
[27] = 1.56 ng/mL in blood, exposure day 5
[28] = 1.56 ng/mL in blood, exposure day 8
[29] = 1.56 ng/mL in blood, exposure day 9
[30] = 1.56 ng/mL in blood, exposure day 10
[31] = 3.13 ng/mL in blood, exposure day 3
[32] = 3.13 ng/mL in blood, exposure day 4
[33] = 3.13 ng/mL in blood, exposure day 5
[34] = 3.13 ng/mL in blood, exposure day 8
[35] = 3.13 ng/mL in blood, exposure day 9
[36] = 3.13 ng/mL in blood, exposure day 10
[37] = 6.25 ng/mL in blood, exposure day 3
[38] = 6.25 ng/mL in blood, exposure day 4
[39] = 6.25 ng/mL in blood, exposure day 5
[40] = 6.25 ng/mL in blood, exposure day 8
[41] = 6.25 ng/mL in blood, exposure day 9
[42] = 6.25 ng/mL in blood, exposure day 10
[43] = 12.5 ng/mL in blood, exposure day 3
[44] = 12.5 ng/mL in blood, exposure day 4
[45] = 12.5 ng/mL in blood, exposure day 5
[46] = 12.5 ng/mL in blood, exposure day 8
[47] = 12.5 ng/mL in blood, exposure day 9
[48] = 12.5 ng/mL in blood, exposure day 10
[49] = 25.0 ng/mL in blood, exposure day 3
[50] = 25.0 ng/mL in blood, exposure day 4
[51] = 25.0 ng/mL in blood, exposure day 5
[52] = 50.0 ng/mL in blood, exposure day 3
[53] = 50.0 ng/mL in blood, exposure day 4
[54] = 50.0 ng/mL in blood, exposure day 5

## Cc1cc(C2=NOC(c3cc(Cl)cc(Cl)c3)(C(F)(F)F)C2)ccc1C(=O)NCC(=O)NCC(F)(F)F (stereo not shown) [fluralaner, 4-[5-(3,5-Dichlorophenyl)-5-trifluoromethyl-4,5-dihydroisoxazol-3-yl]-2-methyl-N-[(2,2,2-trifluoro-ethylcarbamoyl)-methyl]-benzamide]
0.09 ng/mL in blood, arithmetic mean of exposure days
  Oviposition Control: 7.9%
0.09 ng/mL in blood, exposure day 2
  Flea Survival: 100%
[1]
  Flea Survival: 100%
  Oviposition Control: 0%
[2]
  Flea Survival: 100%
  Oviposition Control: 11.3%
[3]
  Flea Survival: 100%
  Oviposition Control: 10.9%
[4]
  Flea Survival: 100%
  Oviposition Control: 16.7%
[5]
  Flea Survival: 100%
  Oviposition Control: 0.3%
[6]
  Flea Survival: 100%
  Oviposition Control: 8.1%
0.19 ng/mL in blood, arithmetic mean of exposure days
  Oviposition Control: 9.2%
0.19 ng/mL in blood, exposure day 2
  Flea Survival: 100%
[7]
  Flea Survival: 100%
  Oviposition Control: 0%
[8]
  Flea Survival: 100%
  Oviposition Control: 5.1%
[9]
  Flea Survival: 100%
  Oviposition Control: 21.0%
[10]
  Flea Survival: 100%
  Oviposition Control: 15.1%
[11]
  Flea Survival: 100%
  Oviposition Control: 0%
[12]
  Flea Survival: 100%
  Oviposition Control: 13.9%
0.39 ng/mL in blood, arithmetic mean of exposure days
  Oviposition Control: 16.1%
0.39 ng/mL in blood, exposure day 2
  Flea Survival: 100%
[13]
  Flea Survival: 100%
  Oviposition Control: 6.72%
[14]
  Flea Survival: 100%
  Oviposition Control: 22.8%
[15]
  Flea Survival: 100%
  Oviposition Control: 23.2%
[16]
  Flea Survival: 100%
  Oviposition Control: 23.8%
[17]
  Flea Survival: 100%
  Oviposition Control: 0%
[18]
  Flea Survival: 98.7%
  Oviposition Control: 20.3%
0.78 ng/mL in blood, arithmetic mean of exposure days
  Oviposition Control: 9.4%
0.78 ng/mL in blood, exposure day 2
  Flea Survival: 100%
[19]
  Flea Survival: 100%
  Oviposition Control: 8.7%
[20]
  Flea Survival: 100%
  Oviposition Control: 3.0%
[21]
  Flea Survival: 100%
  Oviposition Control: 13.8%
[22]
  Flea Survival: 100%
  Oviposition Control: 12.5%
[23]
  Flea Survival: 100%
  Oviposition Control: 0%
[24]
  Flea Survival: 100%
  Oviposition Control: 18.5%
1.56 ng/mL in blood, arithmetic mean of exposure days
  Oviposition Control: 21.1%
1.56 ng/mL in blood, exposure day 2
  Flea Survival: 100%
[25]
  Flea Survival: 100%
  Oviposition Control: 0%
[26]
  Flea Survival: 99.4%
  Oviposition Control: 0%
[27]
  Flea Survival: 99.1%
  Oviposition Control: 17.3%
[28]
  Flea Survival: 93.9%
  Oviposition Control: 49.8%
[29]
  Flea Survival: 92.9%
  Oviposition Control: 30.1%
[30]
  Flea Survival: 90.3%
  Oviposition Control: 29.2%
3.13 ng/mL in blood, arithmetic mean of exposure days
  Oviposition Control: 50.5%
3.13 ng/mL in blood, exposure day 2
  Flea Survival: 100%
[31]
  Flea Survival: 100%
  Oviposition Control: 32.0%
[32]
  Flea Survival: 98.7%
  Oviposition Control: 35.7%
[33]
  Flea Survival: 97.8%
  Oviposition Control: 43.1%
[34]
  Flea Survival: 83.1%
  Oviposition Control: 70.5%
[35]
  Flea Survival: 79.5%
  Oviposition Control: 59.9%
[36]
  Flea Survival: 78.8%
  Oviposition Control: 62.0%
6.25 ng/mL in blood, arithmetic mean of exposure days
  Oviposition Control: 80.6%
6.25 ng/mL in blood, exposure day 2
  Flea Survival: 100%
[37]
  Flea Survival: 100%
  Oviposition Control: 82.6%
[38]
  Flea Survival: 97.5%
  Oviposition Control: 85.9%
[39]
  Flea Survival: 92.8%
  Oviposition Control: 81.3%
[40]
  Flea Survival: 85.0%
  Oviposition Control: 79.9%
[41]
  Flea Survival: 73.1%
  Oviposition Control: 67.5%
[42]
  Flea Survival: 69.7%
  Oviposition Control: 86.4%
12.5 ng/mL in blood, arithmetic mean of exposure days
  Oviposition Control: 99.6%
12.5 ng/mL in blood, exposure day 2
  Flea Survival: 100%
[43]
  Flea Survival: 100%
  Oviposition Control: 99.6%
[44]
  Flea Survival: 67.5%
  Oviposition Control: 100%
[45]
  Flea Survival: 38.9%
  Oviposition Control: 100%
[46]
  Flea Survival: 21.7%
  Oviposition Control: 98.9%
[47]
  Flea Survival: 17.9%
  Oviposition Control: 99.1%
[48]
  Flea Survival: 12.3%
  Oviposition Control: 100%
25.0 ng/mL in blood, arithmetic mean of exposure days
  Oviposition Control: 100%
25.0 ng/mL in blood, exposure day 2
  Flea Survival: 90.6%
[49]
  Flea Survival: 67.5%
  Oviposition Control: 100%
[50]
  Flea Survival: 31.9%
  Oviposition Control: 100%
[51]
  Flea Survival: 11.3%
  Oviposition Control: 100%
25.0 ng/mL in blood, exposure day 8
  Flea Survival: 0%
25.0 ng/mL in blood, exposure day 9
  Flea Survival: 0%
25.0 ng/mL in blood, exposure day 10
  Flea Survival: 0%
50.0 ng/mL in blood, arithmetic mean of exposure days
  Oviposition Control: 100%
50.0 ng/mL in blood, exposure day 2
  Flea Survival: 78.1%
[52]
  Flea Survival: 20.0%
  Oviposition Control: 100%
[53]
  Flea Survival: 8.7%
  Oviposition Control: 100%
[54]
  Flea Survival: 1.2%
  Oviposition Control: 100%
50.0 ng/mL in blood, exposure day 8
  Flea Survival: 0%
50.0 ng/mL in blood, exposure day 9
  Flea Survival: 0%
50.0 ng/mL in blood, exposure day 10
  Flea Survival: 0%
Arithmetic mean of exposure days
  Pupal Development Control: 4.0%
Exposure day 3
  Larval Emergence: yes
  Pupal Development Control: 9.1%
Exposure day 4
  Larval Emergence: yes
  Pupal Development Control: 4.5%
Exposure day 5
  Larval Emergence: yes
  Pupal Development Control: 1.4%
Exposure day 8
  Larval Emergence: yes
